# Measurements taken from publication PMC8453745, “Human Mass Balance and Metabolite Profiling of [^14C]‐Pamiparib, a Poly (ADP‐Ribose) Polymerase Inhibitor, in Patients With Advanced Cancer” (Clinical Pharmacology in Drug Development, 2021).
# Entries after “also recorded” stand apart in the source; their conditions may differ.
# Legend:
# [1] = metabolite profiling in pooled urine (radioprofiling, LC‐MS); type: in vivo, human; conditions: pooled urine 0‐96 hours, mean
# Description: (§1) Total radioactivity concentrations of [^14C]‐pamiparib in whole blood, plasma, urine, and feces were determined by liquid scintillation counting (LSC). Radioactivity in each sample was measured for 5 minutes using a Packard Tri‐Carb liquid scintillation counter model 2100TR, 2900TR, or 3100TR (Canberra Packard, Pangbourne, Berks, Australia) with the facilities for computing quench‐corrected disintegrations per minute. Metabolite identification in plasma, urine, and feces was conducted by LC‐MS. Quantitation of the metabolites present in plasma, urine, and feces was based on the profiles of radioactivity. The limit of quantitation for radioactivity in plasma, urine, and feces was set at 1% of each chromatographic analysis (run) and 10 counts per minute (cpm) peak height; therefore, radioactive peaks that were <1% of the total run or <10 cpm peak height were reported as not detected. In addition, pamiparib and standards were reported, regardless of the percentage of run or peak height.
# Each aliquot of urine (about 1 mL, weighed) was added directly to liquid scintillant prior to LSC. For metabolite profiling, urine samples collected 0‐4, 4‐8, 8‐12, 12‐24, 24‐48, 48‐72, and 72‐96 hours postdose were pooled by individual patient to generate 0‐ to 96‐hour pooled samples including 0.2% of each sample by weight. The radioactivity in each pooled sample was determined by LSC. The total amount of urine collected was factored into the recovery calculation. […] Pooled urine samples were analyzed by LC‐MS, with eluent fractions collected at 10‐second intervals into 96‐well plates containing solid scintillant. Radioactivity in each well was determined using TopCount analysis, and radiochemical profiles were generated based on radioactivity counts.
# (§2) Metabolic profiling was performed on plasma, urine, and feces samples using LC‐MS. Shimadzu/Nexera LC‐30AD pumps and Shimadzu/Prominence DGU‐20A5R degasser were used with Shimadzu/Prominence controller CBM‐20A. The high‐pressure liquid chromatograph (HPLC) was equipped with an autoinjector (Shimadzu/Nexera SIL‐30ACMP) set at 10°C and a fraction collector (Leap Technologies PAL HTC‐xt) set at 15°C. Thermo Fisher Scientific Q Exactive was the mass spectrometer system.
# rCYP3A4 = target: T1, rCYP3A4 (Homo sapiens, UniProt P08684); assay: incubation of pamiparib with recombinant CYP3A4; type: in vitro ADME; conditions: 1 μM pamiparib, 50 pmol/mL, 90 minutes
# T1 construct: purchased Corning (Woburn, New York)
# T1 sequence (P08684 whole entry): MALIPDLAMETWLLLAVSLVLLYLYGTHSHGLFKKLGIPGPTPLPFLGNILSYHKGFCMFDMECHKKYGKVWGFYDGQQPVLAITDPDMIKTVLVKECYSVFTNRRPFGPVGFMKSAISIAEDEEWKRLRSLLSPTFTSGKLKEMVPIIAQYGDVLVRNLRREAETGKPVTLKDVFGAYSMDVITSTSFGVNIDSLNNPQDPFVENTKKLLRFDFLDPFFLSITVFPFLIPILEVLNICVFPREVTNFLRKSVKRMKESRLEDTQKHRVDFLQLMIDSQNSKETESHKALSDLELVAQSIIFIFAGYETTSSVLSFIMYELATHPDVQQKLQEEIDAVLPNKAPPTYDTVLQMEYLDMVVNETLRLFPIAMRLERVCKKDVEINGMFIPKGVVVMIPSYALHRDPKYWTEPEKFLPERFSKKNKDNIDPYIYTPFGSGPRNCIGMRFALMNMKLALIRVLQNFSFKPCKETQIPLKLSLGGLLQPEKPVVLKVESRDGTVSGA
# Description: (§3) Metabolic stability in human liver microsomes (HLMs) and cytochrome P450 (CYP450) phenotyping assays were conducted in 3D BioOptima (Suzhou, China) using validated methodology, [13] to determine the intrinsic clearance and enzymes responsible for metabolism of pamiparib. HLMs for microsome stability was from BD Biosciences (Woburn, New York). For phenotyping, HLMs and recombinant P450 (rCYP) were from Corning (Woburn, New York). Pamiparib (1 μM) was incubated with pooled HLM (0.5 mg/mL), NADPH (1 mM), and MgCl2 (3 mM) terminated at 0, 5, 15, 30, 60, and 90 minutes. The intrinsic clearance was calculated as 0.693/(t1/2 × HLM concentration), where t1/2 is the half‐life of pamiparib determined in HLMs. For phenotyping in HLMs, pamiparib (1 μM) was incubated in the absence or presence of isoform‐selective inhibitors: 0.2 μM α‐naphthoflavone for CYP1A2, 2 μM clopidogrel for CYP2B6, 16 μM montelukast for CYP2C8, 10 μM sulfaphenazole for CYP2C9, 30 μM nootkatone for CYP2C19, 2 μM quinidine for CYP2D6, and 1 μM ketoconazole for CYP3A. The following isoform‐selective probe substrates served as positive controls: 40 μM phenacetin for CYP1A2, 100 μM bupropion for CYP2B6, 2 μM amodiaquine for CYP2C8, 5 μM diclofenac for CYP2C9, 40 μM S‐mephenytoin for CYP2C19, 5 μM dextromethorphan for CYP2D6, and 2 μM midazolam for CYP3A4. […] Pamiparib, M1, and M2 were analyzed by LC‐MS/MS.
# rCYP2D6 = target: T2, rCYP2D6 (Homo sapiens, UniProt P10635); assay: incubation of pamiparib with recombinant CYP2D6; type: in vitro ADME; conditions: 1 μM pamiparib, 50 pmol/mL, 90 minutes
# T2 construct: purchased Corning (Woburn, New York)
# T2 sequence (P10635 whole entry): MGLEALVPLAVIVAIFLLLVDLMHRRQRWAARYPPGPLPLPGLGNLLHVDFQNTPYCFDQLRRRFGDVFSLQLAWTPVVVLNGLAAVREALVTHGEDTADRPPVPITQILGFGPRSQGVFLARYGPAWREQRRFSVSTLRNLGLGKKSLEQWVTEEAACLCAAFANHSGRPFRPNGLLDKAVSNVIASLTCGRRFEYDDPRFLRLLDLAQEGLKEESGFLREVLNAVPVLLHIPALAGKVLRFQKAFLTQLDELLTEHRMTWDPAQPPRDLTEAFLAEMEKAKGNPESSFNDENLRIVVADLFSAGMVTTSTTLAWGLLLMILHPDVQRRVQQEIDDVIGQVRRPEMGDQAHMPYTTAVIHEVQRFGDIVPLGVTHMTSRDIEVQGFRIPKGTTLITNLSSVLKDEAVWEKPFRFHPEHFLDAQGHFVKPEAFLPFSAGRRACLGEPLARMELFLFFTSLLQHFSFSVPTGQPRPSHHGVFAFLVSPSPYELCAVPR
# Description: as §3
# [2] = tested on: rCYP1A2, rCYP2B6, rCYP2C8, rCYP2C9, rCYP2C19, rCYP2D6, rCYP3A4; assay: incubation of pamiparib with recombinant P450 isoform panel; type: in vitro ADME; conditions: 1 μM pamiparib, 50 pmol/mL, 90 minutes
# Description: as §3
# [3] = metabolite profiling in plasma (radioprofiling, LC‐MS); type: in vivo, human; conditions: plasma
# Description: as §1
# For metabolite profiling in plasma, ≈1.9 to 2.8 g of each plasma sample collected 0.5, 1, 2, 6, 12, and 24 hours postdose was extracted twice with 6 mL of 0.1% formic acid in acetonitrile (ACN). Duplicate aliquots were analyzed by LSC to determine extraction recoveries, which ranged from 77.4% to 98.5%. The combined supernatants were evaporated to dryness under nitrogen and reconstituted in 2:1 reverse osmosis water:methanol (MeOH). Duplicate aliquots were analyzed by LSC to determine reconstitution recoveries, which ranged from 89.3% to 115%. The reconstituted samples were analyzed by LC‐MS, with eluent fractions collected at 10‐second intervals into 96‐well plates containing solid scintillant. Radioactivity in each well was determined using TopCount analysis, and radiochemical profiles were generated based on radioactivity counts.
# as §2
# [4] = metabolite profiling in pooled feces (radioprofiling, LC‐MS); type: in vivo, human; conditions: pooled feces 0‐120 hours, mean
# Description: as §1
# Portions of fecal homogenates (about 200‐500 mg) were subjected to combustion analysis prior to LSC. For metabolite profiling, feces samples collected 0‐24, 24‐48, 48‐72, 72‐96, and 96‐120 hours postdose were pooled by individual patient to generate 0‐ to 120‐hour pooled samples including 0.5% of each sample by weight. Feces were pooled per patient (if required) according to the appropriate 24‐hour collection period. The samples were homogenized in deionized water, avoiding excessive dilution (data on file). The radioactivity in each pooled sample was determined by LSC. The total amount of feces collected was factored into the recovery calculation. Approximately 1.6 to 2.7 g of each pooled feces sample was extracted twice with 6 mL of 0.1% formic acid in ACN. […] The combined supernatants were evaporated to dryness under nitrogen and reconstituted in 300 μL of MeOH. […] The reconstituted samples were analyzed by LC‐MS, with eluent fractions collected, and radiochemical profiles were generated based on radioactivity counts. […]
# rCYP2C8 = target: T3, rCYP2C8 (Homo sapiens, UniProt P10632); assay: incubation of pamiparib with recombinant CYP2C8; type: in vitro ADME; conditions: 1 μM pamiparib, 50 pmol/mL, 90 minutes
# T3 construct: purchased Corning (Woburn, New York)
# T3 sequence (P10632 1-490): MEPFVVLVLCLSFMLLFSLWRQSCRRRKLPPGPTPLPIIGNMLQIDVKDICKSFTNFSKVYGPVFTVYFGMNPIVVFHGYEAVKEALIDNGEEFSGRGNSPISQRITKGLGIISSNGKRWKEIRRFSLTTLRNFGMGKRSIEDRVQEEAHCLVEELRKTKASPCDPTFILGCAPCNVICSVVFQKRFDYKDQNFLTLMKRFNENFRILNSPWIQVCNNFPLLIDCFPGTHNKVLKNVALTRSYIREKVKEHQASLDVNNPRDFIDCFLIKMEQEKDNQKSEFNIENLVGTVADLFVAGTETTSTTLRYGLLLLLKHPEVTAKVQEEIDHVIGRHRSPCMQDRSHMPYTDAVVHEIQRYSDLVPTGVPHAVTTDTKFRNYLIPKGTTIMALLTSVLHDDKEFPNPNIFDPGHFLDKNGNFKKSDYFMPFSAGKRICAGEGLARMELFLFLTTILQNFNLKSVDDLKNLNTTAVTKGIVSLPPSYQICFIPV
# Description: as §3
# [5] = stability of metabolite M2; type: physicochemical; conditions: dehydrates in the LC‐MS source or under other conditions
SMILES,"% of Radioactive Dose, Urine [1]",metabolite formation after incubation of pamiparib with rCYP3A4 (rCYP3A4),metabolite formation after incubation of pamiparib with rCYP2D6 (rCYP2D6),metabolite detection across rCYP isoforms [2],Percent of Total Radioactivity Concentration (AUC0‐24h) ([3]; patient S103),Percent of Total Radioactivity Concentration (AUC0‐24h) ([3]; patient S104),"% of Radioactive Dose, Feces [4]",metabolite formation after incubation of pamiparib with rCYP2C8 (rCYP2C8),stability of the metabolite [5]
C[C@]12CCC[N+]1([O-])CC1=NNC(=O)c3cc(F)cc4[nH]c2c1c34 (stereo partly drawn) [Metabolite M1],0.53%,detected; also recorded: generated,detected; also recorded: generated,not detected with other rCYP isoforms,,,,,
C[C@]12CCC(O)N1CC1=NNC(=O)c3cc(F)cc4[nH]c2c1c34 (stereo partly drawn) [Metabolite M2],not identified,higher levels,higher levels; also recorded: generated,detected in all isoforms except rCYP2C9,2.00%,4.38%,not identified,higher levels; also recorded: generated,not stable
"C[C@]1(CCCO)NCC2=NNC(=O)c3cc(F)cc4[nH]c1c2c34 [Metabolite M10, pamiparib hydrate]",8.05%,,,,,,1.3%,,
